We go through 1 molecule from patent publication US20210068395A1, “METHODS OF APPLYING ONE OR MORE CERTAIN HETEROARYL-1,2,4-TRIAZOLE AND HETEROARYL-TETRAZOLE COMPOUNDS TO CONTROL DAMAGE ON PLANTS, PROPAGATION MATERIAL THEREOF, AND PLANT DERIVED PRODUCTS” (SYNGENTA CROP PROTECTION AG, priority 2018, published 2021).

Format in all cases: in vivo
Test [1] concerns Aphis craccivora (Black Bean Aphid). Briefly: Aphis craccivora mixed population, systemic/feeding. Particulars: 120 h, test rate 12.5 ppm, pea seedlings in test solutions, 5 days. As for the experimental part:
Pea seedlings infested with mixed aged aphid population, were put into glass vials with test solutions. 5 days later, samples were assessed for mortality.

For test [2], the system named is Plutella xylostella (Diamond Back Moth). Briefly: Plutella xylostella feeding/contact activity, 96-well artificial diet. The settings on record: 216 h, application rate 500 ppm, 9 days after infestation. As for the experimental part: 1, 2, 3, 4, 17, 19, 23, 26, 39, 41, 42, 54, 55, 56 Plutella xylostella (Diamond Back Moth):Feeding/Contact Activity 96-well microtiter plates containing artificial diet were treated with aqueous test solutions, prepared from 10,000 ppm DMSO stock solutions, by a liquid handling robot. After drying, eggs (˜30 per well) were infested onto a netted lid which was suspended above the diet. The eggs hatch and L1 larvae move down to the diet. The samples were assessed for mortality 9 days after infestation.

For test [3], the system named is Frankliniella occidentalis (Western Flower Thrips). As to the kind of experiment: Frankliniella occidentalis feeding/contact activity. Particulars: foliar, 168 h, application rate 200 ppm, mixed ages on sunflower leaf discs, 7 days after infestation. As for the experimental part:
Sunflower leaf discs were placed on agar in 24-well microtiter plates and sprayed with aqueous test solutions prepared from 10,000 DMSO stock solutions. After drying the leaf discs were infested with a Frankliniella population of mixed ages. The samples were assessed for mortality 7 days after infestation.

The subject of test [4] is Anopheles stephensi (Indian Malaria Mosquito). Briefly: Anopheles stephensi adult contact on treated plates. Particulars: test rate 200 ppm, adult females, mortality assessed at 24 and 48 hours. How it is done: Test solutions, at an application rate of 200 ppm in ethanol, were applied to 12 well tissue culture plates. Once the deposits were dry, five, two to five day old adult female Anopheles stephensi were added to each well, and sustained with a 10% sucrose solution in a cotton wool plug. Assessment of knockdown was made one hour after introduction, and mortality was assessed at 24 and 48 hours after introduction.

In test [5] the test system is Nilaparvata lugens (Brown Plant Hopper). Briefly: Nilaparvata lugens larvicide, feeding/contact. Particulars: 168 h, test rate 200 ppm, N3 nymphs on sprayed rice plants, 7 days after treatment, read-out: control in at least one of the two categories (mortality or growth inhibition). How it is done:
Rice plants were treated with the diluted test solutions in a spray chamber. After drying plants were infested with ˜20 N3 nymphs. 7 days after the treatment samples were assessed for mortality and growth inhibition.

In test [6] the test system is Diabrotica balteata (corn root worm). As to the kind of experiment: Diabrotica balteata (corn root worm), sprayed maize sprouts. Particulars: 96 h, application rate 200 ppm, L2 larvae, 4 days after infestation, read-out: control in at least one of the two categories (mortality or growth inhibition). As for the experimental part:
Maize sprouts placed onto an agar layer in 24-well microtiter plates were treated with aqueous test solutions prepared from 10,000 ppm DMSO stock solutions by spraying. After drying, the plates were infested with L2 larvae (6 to 8 per well). The samples were assessed for mortality and growth inhibition in comparison to untreated samples 4 days after infestation.

Test [7] deals with Euschistus heros (Neotropical Brown Stink Bug). Briefly: Euschistus heros feeding/contact activity. Particulars: 120 h, application rate 200 ppm, N2 nymphs on soybean leaves, 5 days after infestation, read-out: control in at least one of the two categories (mortality or growth inhibition). As for the experimental part: Soybean leaves on agar in 24-well microtiter plates were sprayed with aqueous test solutions prepared from 10,000 ppm DMSO stock solutions. After drying the leaves were infested with N2 nymphs. The samples were assessed for mortality and growth inhibition 5 days after infestation.

In test [8] the test system is Aphis craccivora (Black Bean Aphid). Briefly: Aphis craccivora mixed population, contact/feeding. Particulars: 120 h, test rate 200 ppm, pea seedlings sprayed, 5 days after treatment. As for the experimental part: Pea seedlings infested with mixed aged aphid population were treated with diluted test solutions in a spray chamber. 5 days after treatment, samples were assessed for mortality.

Test [9] concerns Chilo suppressalis (Striped Stem Borer). As to the kind of experiment: Chilo suppressalis larvicide, feeding/contact. The settings on record: 120 h, test rate 200 ppm, L2 larvae on sprayed rice plants, 5 days after application. As for the experimental part:
Rice plants were treated in a spray chamber, cut off and placed into petri dishes containing wet filter paper. 10 L2 larvae were infested and covered up with a cotton filter and a lid. 5 days after application samples were assessed for mortality.

For test [10], the system named is Myzus persicae (Green Peach Aphid). As to the kind of experiment: Myzus persicae feeding/contact activity. The settings on record: foliar, 144 h, application rate 200 ppm, sunflower leaf discs sprayed, 6 days after infestation. As for the experimental part: Sunflower leaf discs were placed onto agar in a 24-well microtiter plate and sprayed with aqueous test solutions prepared from 10,000 ppm DMSO stock solutions. After drying, the leaf discs were infested with an aphid population of mixed ages. The samples were assessed for mortality 6 days after infestation.

In test [11] the test system is Chrysodeixis includens (Soybean Looper). Briefly: Chrysodeixis includens larvicide, feeding/contact. Particulars: 120 h, test rate 50 ppm, L2 larvae on soybean leaves, 5 days after infestation, read-out: control in at least one of the two categories (mortality or growth inhibition). How it is done:
Soybean plants were treated in a spray chamber, cut off and placed into petri dishes containing wet filter paper. 1 d after application leaves were infested with 5 L2 larvae and covered with a fabric filter and plastic lids. 5 days after infestation the samples were assessed for mortality and growth inhibition.

Test [12] deals with Myzus persicae (Green Peach Aphid). As to the kind of experiment: Myzus persicae systemic activity. The settings on record: 144 h, test rate 24 ppm, roots of pea seedlings in test solution, 6 days. How it is done:
Roots of pea seedlings infested with an aphid population of mixed ages were placed directly into aqueous test solutions prepared from 10,000 DMSO stock solutions. The samples were assessed for mortality 6 days after placing seedlings into test solutions.

Test [13] has the same test system. Briefly: Myzus persicae feeding activity (sucrose solution, Parafilm). Particulars: 120 h, test rate 12.5 ppm, in sucrose solution, 5 days after infestation. As for the experimental part:
Test compounds prepared from 10,000 ppm DMSO stock solutions were applied by pipette into 24-well microtiter plates and mixed with sucrose solution. The plates were closed with a stretched Parafilm. A plastic stencil with 24 holes was placed onto the plate and infested pea seedlings were placed directly on the Parafilm. The infested plate was closed with a gel blotting paper and another plastic stencil and then turned upside down. The samples were assessed for mortality 5 days after infestation.

Test [14] concerns Thrips tabaci (Onion thrips). As to the kind of experiment: Thrips tabaci feeding/contact activity. The settings on record: foliar, 144 h, application rate 200 ppm, sunflower leaf discs, 6 days after infestation, read-out: control in at least one of the two categories (mortality or anti-feeding). As for the experimental part:
Sunflower leaf discs were placed on agar in 24-well microtiter plates and sprayed with aqueous test solutions prepared from 10,000 ppm DMSO stock solutions. After drying the leaf discs were infested with a thrips population of mixed ages. The samples were assessed for mortality, and anti-feeding 6 days after infestation.

Test [15] concerns Carpocapsa (Cydia) Pomonella (Codling Moth). As to the kind of experiment: Carpocapsa (Cydia) pomonella larvicide, feeding/contact. Particulars: 336 h, test rate 50 ppm, L1 larvae on diet cubes, 14 days after infestation, read-out: control in at least one of the two categories (mortality or growth inhibition). How it is done: Diet cubes coated with paraffin were sprayed with diluted test solutions in an application chamber. After drying off the treated cubes (10 replicates) were infested with 1 L1 larvae. Samples were incubated at 26-27° C. and checked 14 days after infestation for mortality and growth inhibition.

Test [16] relates to Nilaparvata lugens (Brown Plant Hopper). Briefly: Nilaparvata lugens larvicide, systemic into water. The settings on record: 168 h, test rate 12.5 ppm, into nutritive solution of rice plants, N3 nymphs, 7 days after infestation, read-out: control in at least one of the two categories (mortality or growth inhibition). As for the experimental part: Rice plants cultivated in a nutritive solution were treated with the diluted test solutions into nourishing cultivation system. 1 day after application plants were infested with ˜20 N3 nymphs. 7 days after infestation samples were assessed for mortality and growth inhibition.

Test [17] concerns Spodoptera littoralis (Egyptian Cotton Leaf Worm). Briefly: Spodoptera littoralis feeding/contact activity. The settings on record: foliar, 72 h, application rate 200 ppm, L1 larvae on cotton leaf discs, 3 days after infestation, read-out: control in at least one of the three categories (mortality or growth inhibition or anti-feeding). As for the experimental part: Cotton leaf discs were placed onto agar in 24-well microtiter plates and sprayed with aqueous test solutions prepared from 10,000 ppm DMSO stock solutions. After drying the leaf discs were infested with five L1 larvae. The samples were assessed for mortality, anti-feeding and growth inhibition 3 days after infestation.

For test [18], the system named is Aedes aegypti (Yellow Fever Mosquito). Briefly: whole plant or invertebrate. The settings on record: test rate 200 ppm, adult females, mortality assessed at 24 and 48 hours. How it is done:
Test solutions, at an application rate of 200 ppm in ethanol, were applied to 12 well tissue culture plates. Once the deposits were dry, five, two to five day old adult female Aedes aegypti were added to each well, and sustained with a 10% sucrose solution in a cotton wool plug. Assessment of knockdown was made one hour after introduction, and mortality was assessed at 24 and 48 hours after introduction.

Where only a bound is given, the exact number is not on record here.

Consider `C#CCN(C(=O)c1cc(C(F)(F)F)cc(C(F)(F)F)c1)C(C)c1ncnn1-c1ncccn1` (stereo not drawn) [Compound 2], for which the mortality at 12.5 ppm in [1] and in test [13] was ≥ 80% each time. Moreover, the mortality – broadly, the percentage killed – at 500 ppm in test [2] is ≥ 80%. In addition, the mortality at 200 ppm in [3] is ≥ 80%; in test [4], ≥ 60%; in test [8], ≥ 80%; in test [9], ≥ 80%; in [10], ≥ 80%; in test [18], ≥ 60%. The percent control (mortality or growth inhibition) at 200 ppm in test [5], in test [6] and in test [7] was ≥ 80% each time. For the same molecule, the percent control (mortality or growth inhibition) at 50 ppm in test [11] and in test [15] was ≥ 80% throughout. For the same molecule, in [12], the mortality at 24 ppm is ≥ 80%. Further, the percent control (mortality, anti-feedant effect or growth inhibition) at 200 ppm in test [14] and in [17] was ≥ 80% each time. For the same molecule, in [16], the percent control (mortality or growth inhibition) at 12.5 ppm was ≥ 80%.
